The molecules below were run against BRD4 protein (Homo sapiens, UniProt O60885) (assay: FRET assay, half maximal inhibitory concentration (IC50)). Conditions: BRD4 protein 50 nM, Biotin-H4KAc4 peptide 12.5 nM; A Further List of Classification.
Type: binding
Method in brief: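 HTRF: 50 nM BRD4 preincubated 30 min at room temperature with compound (10-fold series from 50 μM in 12.5% DMSO) in 50 mM HEPES pH 7.5, 100 mM NaCl, 0.05% CHAPS. Then 12.5 nM biotin-H4KAc4 peptide for 30 min, and anti-GST XL665 (10 nM) plus streptavidin cryptate (2.4 nM) with 0.4 M KF for 1 h. IC50 by variable-slope fit.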

Row | IC50 | SMILES
1 | 1 to 10 µM | O=C1CCc2cc(NC(=O)c3cc([N+](=O)[O-])ccc3N3CCCC3)ccc2N1 [S76, 5-nitro-N-(2-oxo-3,4-dihydro-1H-quinolin-6-yl)-2-pyrrolidin-1-yl-benzamide]
2 | 1 to 10 µM | CN1CCN(Cc2ccc(N3CCCC3)c(C(=O)Nc3ccc4c(c3)CCC(=O)N4)c2)CC1 [S80, 5-[(4-methylpiperazin-1-yl)methyl]-N-(2-oxo-3,4-dihydro-1H-quinolin-6-yl)-2-pyrrolidin-1-yl-benzamide]
3 | > 10 µM | CN1CCN(c2ccccc2C(=O)Nc2ccc3c(c2)CCC(=O)N3C)CC1 [S6, N-(1-methyl-2-oxo-3,4-dihydroquinolin-6-yl)-2-(4-methylpiperazin-1-yl)benzamide]
4 | < 0.2 µM | Cc1cc(O)nc2ccc(NC(=O)c3cc(CN(C)CCO)ccc3N3CCCC3)cc12 [S81, 5-[[2-hydroxyethyl(methyl)amino]methyl]-N-(2-hydroxy-4-methyl-6-quinolyl)-2-pyrrolidin-1-yl-benzamide]
5 | > 10 µM | CN1CCN(c2ccccc2C(=O)Nc2ccc3c(c2)OCC(=O)N3C)CC1 [S7, N-(4-methyl-3-oxo-1,4-benzoxazin-7-yl)-2-(4-methylpiperazin-1-yl)benzamide]
6 | < 0.2 µM | Cc1cc(O)nc2ccc(NC(=O)c3cc(S(N)(=O)=O)ccc3N3CCOCC3)cc12 [S12, N-(2-hydroxy-4-methyl-6-quinolyl)-2-morpholino-5-sulfamoyl-benzamide]
7 | < 0.2 µM | COCC1CN(Cc2ccc(N3CCCC3)c(C(=O)Nc3ccc4nc(O)cc(C)c4c3)c2)C1 [S90, N-(2-hydroxy-4-methyl-6-quinolyl)-5-[[3-(methoxymethyl)azetidin-1-yl]methyl]-2-pyrrolidin-1-yl-benzamide]
8 | > 10 µM | Cc1cc(O)nc2ccc(NC(=O)c3cccc(S(=O)(=O)N4CCN(C)CC4)c3)cc12 [S36, N-(2-hydroxy-4-methyl-6-quinolyl)-3-(4-methylpiperazin-1-yl)sulfonyl-benzamide]
9 | > 10 µM | CN(C)S(=O)(=O)c1ccc(N2CCOCC2)c(C(=O)Nc2ccc3[nH]c(=O)[nH]c(=O)c3c2)c1 [S37, 5-(dimethylsulfamoyl)-N-(2,4-dioxo-1H-quinazolin-6-yl)-2-morpholino-benzamide]
10 | 0.2 to 0.5 µM | Cc1cc(O)nc2ccc(NC(=O)c3cc(CN4CCOCC4)cnc3N3CCCC3C)cc12 (stereo not drawn) [S94, N-(2-hydroxy-4-methyl-6-quinolyl)-2-(2-methylpyrrolidin-1-yl)-5-(morpholinomethyl)pyridine-3-carboxamide]
11 | 0.2 to 0.5 µM | Cc1cc(O)nc2ccc(NC(=O)c3cc([N+](=O)[O-])ccc3N(C)C)cc12 [S22, 2-(dimethylamino)-N-(2-hydroxy-4-methyl-6-quinolyl)-5-nitro-benzamide]
12 | 1 to 10 µM | Cc1cc(O)nc2ccc(NC(=O)c3ccccc3N3CCN(c4cnccn4)CC3)cc12 [S11, N-(2-hydroxy-4-methyl-6-quinolyl)-2-(4-pyrazin-2-ylpiperazin-1-yl)benzamide]
13 | 1 to 10 µM | CN1C(=O)CCc2cc(NC(=O)c3cc(S(N)(=O)=O)ccc3N3CCOCC3)ccc21 [S13, N-(1-methyl-2-oxo-3,4-dihydroquinolin-6-yl)-2-morpholino-5-sulfamoyl-benzamide]
14 | < 0.2 µM | Cc1cc(O)nc2ccc(NC(=O)c3cc(CNCC4CCCO4)ccc3N3CCCC3)cc12 (stereo not drawn) [S82, N-(2-hydroxy-4-methyl-6-quinolyl)-2-pyrrolidin-1-yl-5-[(tetrahydrofuran-2-ylmethylamino)methyl]benzamide]
15 | < 0.2 µM | CN1Cc2cc(NC(=O)c3cc(S(=O)(=O)N(C)C)ccc3N3CCOCC3)ccc2NC1=O [S39, 5-(dimethylsulfamoyl)-N-(3-methyl-2-oxo-1,4-dihydroquinazolin-6-yl)-2-morpholino-benzamide]
16 | > 10 µM | Cc1cc(O)nc2ccc(NC(=O)c3cc(S(=O)(=O)N4CCOCC4)ccc3Br)cc12 [S34, 2-bromo-N-(2-hydroxy-4-methyl-6-quinolyl)-5-morpholinosulfonyl-benzamide]

Same assay, conditions: BRD4 protein 50 nM, Biotin-H4KAc4 peptide 12.5 nM; List of Classification

Row | IC50 | SMILES
17 | < 0.2 µM | Cc1cc(O)nc2ccc(NC(=O)c3cc([N+](=O)[O-])ccc3N3CCCC3)cc12 [Compound-82, N-(2-hydroxy-4-methyl-6-quinolyl)-5-nitro-2-pyrrolidin-1-yl-benzamide]
18 | < 0.2 µM | Cc1cc(O)nc2ccc(NC(=O)c3cc(OC(F)(F)F)ccc3N3CCCC3CN(C)C)cc12 (stereo not drawn) [Compound-51, 2-(2-((dimethylamino)methyl)pyrrolidin-1-yl)-N-(2-hydroxy-4-methylquinolin-6-yl)-5-(trifluoromethoxy) benzamide]
19 | 1 to 10 µM | Cc1cc(O)nc2ccc(NS(=O)(=O)c3cc([N+](=O)[O-])ccc3N3CCOCC3)cc12 [Compound-76, N-(2-hydroxy-4-methyl-6-quinolyl)-2-morpholino-5-nitro-benzenesulfonamide]
20 | < 0.2 µM | Cc1cc(O)nc2ccc(NC(=O)c3cc(S(=O)(=O)N4CCC(N(C)C)C4)ccc3N3CCOCC3)cc12 (stereo not drawn) [Compound-6, 5-[3-(dimethylamino)pyrrolidin-1-yl]sulfonyl-N-(2-hydroxy-4-methyl-6-quinolyl)-2-morpholino-benzamide]
21 | > 10 µM | Cc1cc(=O)nc2ccc(NC(=O)c3cc(CN4CCOCC4)cnc3N3CCCC3)cn12 [Compound-92, N-(4-methyl-2-oxo-pyrido[1,2-a]pyrimidin-7-yl)-5-(morpholinomethyl)-2-pyrrolidin-1-yl-pyridine-3-carboxamide]
22 | < 0.2 µM | Cc1cc(O)nc2ccc(NC(=O)c3cc(C(=O)N(C)C)ccc3N3CCOCC3)cc12 [Compound-9, N3-(2-hydroxy-4-methyl-6-quinolyl)-N1,N1-dimethyl-4-morpholino-benzene-1,3-dicarboxamide]
23 | 1 to 10 µM | COc1cc2nc(O)cc(C)c2cc1NC(=O)c1cc(-c2ccoc2)cnc1N1CCOCC1 [Compound-190, 5-(furan-3-yl)-N-(2-hydroxy-7-methoxy-4-methylquinolin-6-yl)-2-morpholinonicotinamide]
24 | < 0.2 µM | CC1CC(=O)Nc2ccc(NC(=O)c3cc(CN4CCOCC4)ccc3N3CCCC3)cc21 (stereo not drawn) [Compound-101, N-(4-methyl-2-oxo-3,4-dihydro-1H-quinolin-6-yl)-5-(morpholinomethyl)-2-pyrrolidin-1-yl-benzamide]
25 | 0.2 to 0.5 µM | Cc1cc2nc(O)cc(C)c2cc1NC(=O)c1cccnc1N1CCC(F)(F)C1 [Compound-127, 2-(3,3-difluoropyrrolidin-1-yl)-N-(2-hydroxy-4,7-dimethyl-6-quinolyl)pyridine-3-carboxamide]
26 | < 0.2 µM | COCC1CCCN1c1ccc(CN2CCOCC2)cc1C(=O)Nc1ccc2nc(O)cc(C)c2c1 (stereo not drawn) [Compound-26, N-(2-hydroxy-4-methylquinolin-6-yl)-2-(2-(methoxymethyl)pyrrolidin-1-yl)-5-(morpholinomethyl) benzamide]
27 | < 0.2 µM | Cc1cc(O)nc2ccc(NC(=O)c3cc(C(C)O)ccc3N3CCOCC3)cc12 (stereo not drawn) [Compound-168, N-(2-hydroxy-4-methylquinolin-6-yl)-5-(1-hydroxyethyl)-2-morpholinobenzamide]
28 | < 0.2 µM | Cc1cc(O)nc2ccc(NC(=O)c3cccnc3N3CCC(F)(F)CC3)cc12 [Compound-146, 2-(4,4-difluoro-1-piperidyl)-N-(2-hydroxy-4-methyl-6-quinolyl)pyridine-3-carboxamide]
29 | < 0.2 µM | CC(=O)c1cc(C(=O)Nc2ccc3nc(O)cc(C)c3c2)c(N2CCC(F)C2)cn1 (stereo not drawn) [Compound-209]
30 | < 0.2 µM | Cc1cc2[nH]c(=O)cc(C)c2cc1NC(=O)c1cc(C#N)ncc1N1CCOCC1 [Compound-164, 2-cyano-N-(4,7-dimethyl-2-oxo-1H-quinolin-6-yl)-5-morpholino-pyridine-4-carboxamide]
31 | 0.5 to 1 µM | Cc1cc2nc(O)cc(C)c2cc1NC(=O)c1cccnc1N1CCOCC1 [Compound-125, N-(2-hydroxy-4,7-dimethyl-6-quinolyl)-2-morpholino-pyridine-3-carboxamide]
32 | < 0.2 µM | Cc1cc(O)nc2ccc(NC(=O)c3cc(CN4CCOCC4)cnc3N3CCCC3)cc12 [Compound-87, N-(2-hydroxy-4-methyl-6-quinolyl)-5-(morpholinomethyl)-2-pyrrolidin-1-yl-pyridine-3-carboxamide]
33 | 0.2 to 0.5 µM | COCc1ccc(N2CCCC2CN(C)C)c(C(=O)Nc2ccc3nc(O)cc(C)c3c2)c1 (stereo not drawn) [Compound-48, 2-(2-((dimethylamino)methyl)pyrrolidin-1-yl)-N-(2-hydroxy-4-methylquinolin-6-yl)-5-(methoxymethyl)benzamide]
34 | < 0.2 µM | Cc1cc(O)nc2ccc(NC(=O)c3cc(C(C)O)ncc3N3CCCC3CN(C)C)cc12 (stereo not drawn) [Compound-213, 5-(2-((dimethylamino)methyl)pyrrolidin-1-yl)-N-(2-hydroxy-4-methylquinolin-6-yl)-2-(1-hydroxyethyl)isonicotinamide]
35 | < 0.2 µM | Cc1cc(O)nc2ccc(NC(=O)c3cnccc3N3CCOCC3)cc12 [Compound-123, N-(2-hydroxy-4-methyl-6-quinolyl)-4-morpholino-pyridine-3-carboxamide]
36 | < 0.2 µM | COc1cc(NC(=O)c2cc(S(=O)(=O)N(C)C)ccc2N2CCCC2)cc2c(C)cc(O)nc12 [Compound-108, 5-(dimethylsulfamoyl)-N-(2-hydroxy-8-methoxy-4-methyl-6-quinolyl)-2-pyrrolidin-1-yl-benzamide]
37 | < 0.2 µM | Cc1cc(O)nc2ccc(NC(=O)c3cc(-c4nnn[nH]4)ccc3N3CCOCC3)cc12 [Compound-181, N-(2-hydroxy-4-methylquinolin-6-yl)-2-morpholino-5-(1H-tetrazol-5-yl)benzamide]
38 | 0.5 to 1 µM | Cc1cc(O)nc2ccc(NC(=O)c3cc(C#N)ncc3N3CCC(F)C3)cc12 (stereo not drawn) [Compound-197, 2-cyano-5-(3-fluoropyrrolidin-1-yl)-N-(2-hydroxy-4-methylquinolin-6-yl) isonicotinamide]
39 | < 0.2 µM | Cc1cc(O)nc2ccc(NC(=O)c3cc(CC#N)ccc3N3CCCC3)cc12 [Compound-112, 5-(cyanomethyl)-N-(4-methyl-2-oxo-1,2-dihydroquinolin-6-yl)-2-(pyrrolidin-1-yl)benzamide]

From patent publication US10752640B2, “Compounds active towards bromodomains” (NUEVOLUTION A/S, priority 2014, dated 2020)
